Source: ChEMBL document CHEMBL1649172, “Novel imino sugar derivatives demonstrate potent antiviral activity against flaviviruses” (Antimicrob Agents Chemother, 2009)
The source made the active and inactive calls. The rule behind the calls is not given here.

What was measured:
[1] = Antiviral activity against 1 MOI Bovine viral diarrhea virus NADL infected in MDBK cells assessed as reduction in viral titer after 72 hrs by plaque forming assay; format: functional, cell-based, Bovine viral diarrhea virus 1-NADL; details: Bovine viral diarrhea virus isolates and strains
[2] = Cytotoxicity against MDBK cells by MTT assay; format: cell-based, Bos taurus; details: cattle
[3] = Selectivity index, ratio of CC50 for bovine MDBK cells to EC50 for 1 MOI Bovine viral diarrhea virus infected in bovine MDBK cells; format: toxicity, cell-based; details: cattle; read-out: Ratio CC50/EC50
Dengue virus [4] = assay: Antiviral activity against Dengue virus C infected in african green monkey Vero cells assessed as reduction in viral titer after 72 hrs by plaque reduction assay; format: functional, organism-based
West Nile virus = assay: Antiviral activity against West Nile virus infected in baby hamster kidney cells assessed as reduction in viral titer after 72 hrs by plaque reduction assay; format: functional, organism-based
[5] = Cytotoxicity against BHK cells by MTT assay; format: cell-based, Mesocricetus auratus; details: hamster
[6] = Cytotoxicity against african green monkey Vero cells by MTT assay; format: cell-based; details: chlorocebus sabaeus
[7] = system: Bovine viral diarrhea virus 1-NADL; assay: Inhibition of […] assessed as reduced E2 protein mobility after 24 hrs by Western blotting
MDBK [8] = assay: Antiviral activity against 1 MOI Bovine viral diarrhea virus NADL infected in bovine MDBK cells assessed as inhibition of viral RNA replication at 100 uM after 6 hrs by RT-PCR; format: functional, cell-based; details: Bovine viral diarrhea virus 1-NADL
MDBK [9] = assay: Antiviral activity against 1 MOI Bovine viral diarrhea virus NADL infected in bovine MDBK cells assessed as inhibition of viral RNA replication at 100 uM after 12 hrs by RT-PCR; format: functional, cell-based; details: Bovine viral diarrhea virus 1-NADL
[10] = Antiviral activity against 1 MOI Bovine viral diarrhea virus NADL infected in bovine MDBK cells assessed as inhibition of viral RNA replication at 100 uM after 24 hrs by RT-PCR; format: functional, Bovine viral diarrhea virus 1-NADL; details: Bovine viral diarrhea virus isolates and strains
MDBK [11] = assay: Antiviral activity against 1 MOI Bovine viral diarrhea virus NADL infected in bovine MDBK cells assessed as inhibition of viral RNA replication at 80 uM after 6 hrs by RT-PCR; format: functional, cell-based; details: Bovine viral diarrhea virus 1-NADL
MDBK [12] = assay: Antiviral activity against 1 MOI Bovine viral diarrhea virus NADL infected in bovine MDBK cells assessed as inhibition of viral RNA replication at 80 uM after 12 hrs by RT-PCR; format: functional, cell-based; details: Bovine viral diarrhea virus 1-NADL
[13] = (§1) Antiviral activity against 1 MOI Bovine viral diarrhea virus NADL infected in bovine MDBK cells assessed as inhibition of viral RNA replication at 80 uM after 24 hrs by RT-PCR; format: functional, Bovine viral diarrhea virus 1-NADL; details: Bovine viral diarrhea virus isolates and strains
[14] = Antiviral activity against 1 MOI Bovine viral diarrhea virus NADL infected in bovine MDBK cells assessed as inhibition of intracellular viral RNA production at 100 uM after 24 hrs by RT-PCR; format: functional, Bovine viral diarrhea virus 1-NADL; details: Bovine viral diarrhea virus isolates and strains
[15] = Antiviral activity against 1 MOI Bovine viral diarrhea virus NADL infected in bovine MDBK cells assessed as inhibition of intracellular viral RNA production at 80 uM after 24 hrs by RT-PCR; format: functional, Bovine viral diarrhea virus 1-NADL; details: Bovine viral diarrhea virus isolates and strains
[16] = Antiviral activity against 1 MOI Bovine viral diarrhea virus NADL infected in bovine MDBK cells assessed as inhibition of extracellular viral RNA production at 100 uM after 24 hrs by RT-PCR; format: functional, Bovine viral diarrhea virus 1-NADL; details: Bovine viral diarrhea virus isolates and strains
[17] = Antiviral activity against 1 MOI Bovine viral diarrhea virus NADL infected in bovine MDBK cells assessed as inhibition of extracellular viral RNA production at 80 uM after 24 hrs by RT-PCR; format: functional, Bovine viral diarrhea virus 1-NADL; details: Bovine viral diarrhea virus isolates and strains
[18] = Antiviral activity against 1 MOI Bovine viral diarrhea virus NADL infected in bovine MDBK cells assessed as reduction in viral titer at 100 uM after 24 hrs by RT-PCR; format: functional, Bovine viral diarrhea virus 1-NADL; details: Bovine viral diarrhea virus isolates and strains
[19] = Antiviral activity against 1 MOI Bovine viral diarrhea virus NADL infected in bovine MDBK cells assessed as reduction in viral titer at 80 uM after 24 hrs by RT-PCR; format: functional, Bovine viral diarrhea virus 1-NADL; details: Bovine viral diarrhea virus isolates and strains
[20] = system: Bovine viral diarrhea virus 1; assay: Antiviral activity against Bovine viral diarrhea virus 1; format: functional, organism-based; details: Bovine viral diarrhea virus isolates and strains
Dengue virus [21] = assay: Antiviral activity against Dengue virus; format: functional, organism-based
MDBK [22] = assay: as §1; format: functional; details: Bovine viral diarrhea virus 1-NADL

Structure (SMILES)	EC50 [1]	EC90 [1]	CC50 [2]	selectivity ratio [3]	EC50 (Dengue virus [4])	EC90 (Dengue virus [4])	EC50 (West Nile virus)	CC50 [5]	CC50 [6]	further results
Cc1ccc(C)c(OCCCCCCN2C[C@H](O)[C@@H](O)[C@H](O)[C@H]2CO)c1	3 µM	24.9 µM	485 µM	162	0.1 µM	0.6 µM	1.5 µM	75 µM	85 µM	EC90 (West Nile virus): 20 µM
OC[C@@H]1[C@@H](O)[C@H](O)[C@@H](O)CN1CCCCCOCC1CC2CCC1C2 (stereo partly specified)	2.9 µM	22 µM	> 500 µM	> 172						
CCCC(O)(CCC)CCCCCN1C[C@H](O)[C@@H](O)[C@H](O)[C@H]1CO	9.5 µM	> 100 µM	> 500 µM	> 53						
OC[C@@H]1[C@@H](O)[C@H](O)[C@@H](O)CN1CCCCCC1(O)CCCCC1	10.5 µM	> 100 µM	> 500 µM	> 48	4 µM	8.7 µM	4.5 µM	> 100 µM	> 40 µM	inhibition [7]: Dose-dependent effect; inhibition (MDBK [8]): inactive; inhibition (MDBK [9]): inactive; inhibition at 100 µM [10]: 40%; inhibition (MDBK [11]): inactive; inhibition (MDBK [12]): inactive; inhibition at 80 µM [13]: 40%; inhibition at 100 µM [14]: 40%; inhibition at 80 µM [15]: 40%; inhibition at 100 µM [16]: 73%; inhibition at 80 µM [17]: 73%; inhibition at 100 µM [18]: 89%; inhibition at 80 µM [19]: 89%
CCCCCCCCCN1C[C@H](O)[C@@H](O)[C@H](O)[C@H]1CO	7.3 µM	71 µM	245 µM	33	1.1 µM	3.3 µM	4 µM	20 µM	> 40 µM	
OC[C@@H]1[C@@H](O)[C@H](O)[C@@H](O)CN1CCCCCCOC1CC2CCC1C2 (stereo partly specified)	4.5 µM	47 µM	> 500 µM	> 111						
OC[C@@H]1[C@@H](O)[C@H](O)[C@@H](O)CN1CCCCCCC1(O)CCCCC1	18 µM	82.5 µM	> 500 µM	> 28						
CCC(O)(CC)CCCCCN1C[C@H](O)[C@@H](O)[C@H](O)[C@H]1CO	22 µM	> 100 µM	> 500 µM	> 23						
CC(C)[C@@H]1CC[C@@H](C)CC1OCCCCCCN1C[C@H](O)[C@@H](O)[C@H](O)[C@H]1CO (stereo partly specified)	1.6 µM	14.8 µM	235 µM	146	0.1 µM	0.2 µM	4.75 µM	70 µM	80 µM	EC90 (West Nile virus): 19 µM
C[C@@H]1CCCCC1OCCCCCCN1C[C@H](O)[C@@H](O)[C@H](O)[C@H]1CO (stereo partly specified)	3.3 µM	14.3 µM	> 500 µM	> 151	0.075 µM	0.6 µM	3.5 µM	70 µM	65 µM	EC90 (West Nile virus): 33 µM
CCCCN1C[C@H](O)[C@@H](O)[C@H](O)[C@H]1CO [MIGLUSTAT]										EC50 [20]: 100 µM; EC50 (Dengue virus [21]): 100 µM
CC1CCC(OCCCCCCN2C[C@H](O)[C@@H](O)[C@H](O)[C@H]2CO)CC1 (stereo partly specified)	7.1 µM	53 µM	> 500 µM	> 70	6.75 µM	13 µM			> 40 µM	inhibition (MDBK [9]): inactive; inhibition at 100 µM [10]: 40%; inhibition (MDBK [12]): inactive; inhibition at 80 µM [13]: 40%; inhibition (MDBK [22]): Active; inhibition at 100 µM [14]: 40%; inhibition at 80 µM [15]: 40%; inhibition at 100 µM [16]: 73%; inhibition at 80 µM [17]: 73%; inhibition at 100 µM [18]: 89%; inhibition at 80 µM [19]: 89%
